Data taken from patent publication US10669284B2, “Fused thiazolopyrimidine derivatives as MNKS inhibitors” (LIFEARC, priority 2015, dated 2020).

Key:
PTK2 = PTK2 (Homo sapiens, UniProt Q05397); assay: Kinase selectivity screen PTK2; conditions: read-out: % inhibition of PTK2
BMX = target: T1, BMX (Homo sapiens, UniProt P51813); assay: Kinase selectivity screen BMX; conditions: read-out: % inhibition of BMX
T1 sequence (P51813 1-675): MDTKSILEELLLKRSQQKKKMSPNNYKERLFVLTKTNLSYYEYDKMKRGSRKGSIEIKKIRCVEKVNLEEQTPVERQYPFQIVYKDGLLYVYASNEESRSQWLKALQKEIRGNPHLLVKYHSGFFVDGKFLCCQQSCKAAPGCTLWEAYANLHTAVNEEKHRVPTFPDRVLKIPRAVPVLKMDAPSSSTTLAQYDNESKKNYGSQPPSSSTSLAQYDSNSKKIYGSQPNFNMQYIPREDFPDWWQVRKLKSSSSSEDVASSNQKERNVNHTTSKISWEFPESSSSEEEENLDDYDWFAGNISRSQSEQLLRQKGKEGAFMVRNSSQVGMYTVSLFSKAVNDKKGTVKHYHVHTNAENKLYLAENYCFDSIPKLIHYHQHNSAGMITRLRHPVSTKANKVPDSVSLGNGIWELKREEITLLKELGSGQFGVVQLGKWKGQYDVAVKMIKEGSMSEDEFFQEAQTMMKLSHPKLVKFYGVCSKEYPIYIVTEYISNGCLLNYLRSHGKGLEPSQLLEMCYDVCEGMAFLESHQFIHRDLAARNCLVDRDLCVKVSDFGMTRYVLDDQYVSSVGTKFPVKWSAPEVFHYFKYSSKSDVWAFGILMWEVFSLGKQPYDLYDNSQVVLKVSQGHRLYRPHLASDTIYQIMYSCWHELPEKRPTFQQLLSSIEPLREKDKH

LCK = LCK (Homo sapiens, UniProt P06239); assay: Kinase selectivity screen LCK; conditions: read-out: % inhibition of LCK
Sequence of LCK (P06239 whole entry, species assumed): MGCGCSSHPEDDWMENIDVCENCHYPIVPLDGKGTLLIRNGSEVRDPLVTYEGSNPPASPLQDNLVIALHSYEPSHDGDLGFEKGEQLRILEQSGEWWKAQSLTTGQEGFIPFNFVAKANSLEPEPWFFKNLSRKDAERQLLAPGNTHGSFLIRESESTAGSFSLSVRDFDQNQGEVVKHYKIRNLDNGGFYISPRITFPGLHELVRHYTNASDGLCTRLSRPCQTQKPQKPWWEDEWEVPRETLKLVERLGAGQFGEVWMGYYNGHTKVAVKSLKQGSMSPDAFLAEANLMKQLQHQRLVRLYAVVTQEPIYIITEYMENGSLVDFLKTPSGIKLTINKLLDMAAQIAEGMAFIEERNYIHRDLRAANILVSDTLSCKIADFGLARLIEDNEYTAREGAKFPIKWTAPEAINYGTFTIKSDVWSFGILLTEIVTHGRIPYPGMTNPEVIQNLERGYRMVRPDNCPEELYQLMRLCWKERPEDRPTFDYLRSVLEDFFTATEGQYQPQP

MKNK2 = MKNK2 (Homo sapiens, UniProt Q9HBH9); assay: Kinase selectivity screen MKNK2; assay type: biochemical; conditions: 1 μM compound
Sequence of MKNK2 (Q9HBH9 whole entry): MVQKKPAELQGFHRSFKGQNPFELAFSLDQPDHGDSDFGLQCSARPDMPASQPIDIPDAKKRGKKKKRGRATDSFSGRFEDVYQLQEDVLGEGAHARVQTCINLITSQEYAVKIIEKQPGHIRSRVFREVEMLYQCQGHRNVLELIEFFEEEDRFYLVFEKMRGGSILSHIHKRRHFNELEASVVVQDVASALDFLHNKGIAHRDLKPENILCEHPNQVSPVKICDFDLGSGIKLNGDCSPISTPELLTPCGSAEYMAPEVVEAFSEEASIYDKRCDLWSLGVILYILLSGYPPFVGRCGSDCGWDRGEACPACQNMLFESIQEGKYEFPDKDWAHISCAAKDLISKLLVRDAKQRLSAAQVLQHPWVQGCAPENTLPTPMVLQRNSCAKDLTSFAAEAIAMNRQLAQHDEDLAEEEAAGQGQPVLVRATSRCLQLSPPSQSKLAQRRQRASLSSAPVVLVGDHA

STK10 = STK10 (Homo sapiens, UniProt O94804); assay: Kinase selectivity screen STK10; conditions: read-out: % inhibition of STK10
Sequence of STK10 (O94804 whole entry, species assumed): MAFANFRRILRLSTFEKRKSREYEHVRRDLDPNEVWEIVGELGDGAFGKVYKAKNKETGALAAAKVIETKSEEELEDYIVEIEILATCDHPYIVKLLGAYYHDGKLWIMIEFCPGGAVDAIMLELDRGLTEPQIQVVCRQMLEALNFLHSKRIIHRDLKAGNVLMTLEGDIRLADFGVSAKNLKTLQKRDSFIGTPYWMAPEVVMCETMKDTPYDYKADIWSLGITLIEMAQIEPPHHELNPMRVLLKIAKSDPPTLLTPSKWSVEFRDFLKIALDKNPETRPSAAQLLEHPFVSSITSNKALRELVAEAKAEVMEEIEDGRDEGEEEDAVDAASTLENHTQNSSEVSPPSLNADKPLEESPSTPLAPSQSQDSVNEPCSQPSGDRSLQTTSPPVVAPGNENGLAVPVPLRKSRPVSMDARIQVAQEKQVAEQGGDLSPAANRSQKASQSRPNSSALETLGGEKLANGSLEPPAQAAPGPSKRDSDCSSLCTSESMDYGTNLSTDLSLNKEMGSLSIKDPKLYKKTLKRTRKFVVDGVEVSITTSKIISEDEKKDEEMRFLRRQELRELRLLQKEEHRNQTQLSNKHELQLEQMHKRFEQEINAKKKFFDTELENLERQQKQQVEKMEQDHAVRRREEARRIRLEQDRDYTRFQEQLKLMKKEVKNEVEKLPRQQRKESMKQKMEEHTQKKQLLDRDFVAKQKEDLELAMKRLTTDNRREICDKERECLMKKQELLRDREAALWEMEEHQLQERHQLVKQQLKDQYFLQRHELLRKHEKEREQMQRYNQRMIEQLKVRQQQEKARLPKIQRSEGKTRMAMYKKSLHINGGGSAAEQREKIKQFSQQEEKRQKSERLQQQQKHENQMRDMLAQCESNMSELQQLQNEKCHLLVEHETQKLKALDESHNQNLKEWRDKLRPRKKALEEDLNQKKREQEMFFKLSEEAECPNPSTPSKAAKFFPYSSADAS

DYRK2 = target: T2, DYRK2 (Homo sapiens, UniProt Q92630); assay: Kinase selectivity screen DYRK2; conditions: read-out: % inhibition of DYRK2
T2 sequence (Q92630 1-601): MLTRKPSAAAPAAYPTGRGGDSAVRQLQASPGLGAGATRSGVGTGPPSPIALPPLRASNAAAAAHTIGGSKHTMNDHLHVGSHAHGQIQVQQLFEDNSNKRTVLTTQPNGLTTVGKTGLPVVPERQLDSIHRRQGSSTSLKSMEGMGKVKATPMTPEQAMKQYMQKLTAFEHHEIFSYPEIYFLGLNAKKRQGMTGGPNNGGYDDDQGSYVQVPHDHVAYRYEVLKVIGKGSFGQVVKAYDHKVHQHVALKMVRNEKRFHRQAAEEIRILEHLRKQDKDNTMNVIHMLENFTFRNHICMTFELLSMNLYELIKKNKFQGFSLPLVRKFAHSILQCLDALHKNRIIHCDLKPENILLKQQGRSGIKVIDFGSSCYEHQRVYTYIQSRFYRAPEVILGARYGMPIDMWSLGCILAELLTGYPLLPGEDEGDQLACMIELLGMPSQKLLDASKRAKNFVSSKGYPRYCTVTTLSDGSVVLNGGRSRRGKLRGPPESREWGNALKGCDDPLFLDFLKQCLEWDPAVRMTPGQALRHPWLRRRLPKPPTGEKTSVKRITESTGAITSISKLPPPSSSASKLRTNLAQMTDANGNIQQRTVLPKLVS

MAP3K9 = MAP3K9 (Homo sapiens, UniProt P80192); assay: Kinase selectivity screen MAP3K9; conditions: read-out: % inhibition of MAP3K9
ROCK2 = ROCK2 (Homo sapiens, UniProt O75116); assay: Kinase selectivity screen ROCK2; conditions: read-out: % inhibition of ROCK2
PIK3CG = PIK3CG (Homo sapiens, UniProt P48736); assay: Kinase selectivity screen PIK3CG; conditions: read-out: % inhibition of PIK3CG
Sequence of PIK3CG (P48736 whole entry, species assumed): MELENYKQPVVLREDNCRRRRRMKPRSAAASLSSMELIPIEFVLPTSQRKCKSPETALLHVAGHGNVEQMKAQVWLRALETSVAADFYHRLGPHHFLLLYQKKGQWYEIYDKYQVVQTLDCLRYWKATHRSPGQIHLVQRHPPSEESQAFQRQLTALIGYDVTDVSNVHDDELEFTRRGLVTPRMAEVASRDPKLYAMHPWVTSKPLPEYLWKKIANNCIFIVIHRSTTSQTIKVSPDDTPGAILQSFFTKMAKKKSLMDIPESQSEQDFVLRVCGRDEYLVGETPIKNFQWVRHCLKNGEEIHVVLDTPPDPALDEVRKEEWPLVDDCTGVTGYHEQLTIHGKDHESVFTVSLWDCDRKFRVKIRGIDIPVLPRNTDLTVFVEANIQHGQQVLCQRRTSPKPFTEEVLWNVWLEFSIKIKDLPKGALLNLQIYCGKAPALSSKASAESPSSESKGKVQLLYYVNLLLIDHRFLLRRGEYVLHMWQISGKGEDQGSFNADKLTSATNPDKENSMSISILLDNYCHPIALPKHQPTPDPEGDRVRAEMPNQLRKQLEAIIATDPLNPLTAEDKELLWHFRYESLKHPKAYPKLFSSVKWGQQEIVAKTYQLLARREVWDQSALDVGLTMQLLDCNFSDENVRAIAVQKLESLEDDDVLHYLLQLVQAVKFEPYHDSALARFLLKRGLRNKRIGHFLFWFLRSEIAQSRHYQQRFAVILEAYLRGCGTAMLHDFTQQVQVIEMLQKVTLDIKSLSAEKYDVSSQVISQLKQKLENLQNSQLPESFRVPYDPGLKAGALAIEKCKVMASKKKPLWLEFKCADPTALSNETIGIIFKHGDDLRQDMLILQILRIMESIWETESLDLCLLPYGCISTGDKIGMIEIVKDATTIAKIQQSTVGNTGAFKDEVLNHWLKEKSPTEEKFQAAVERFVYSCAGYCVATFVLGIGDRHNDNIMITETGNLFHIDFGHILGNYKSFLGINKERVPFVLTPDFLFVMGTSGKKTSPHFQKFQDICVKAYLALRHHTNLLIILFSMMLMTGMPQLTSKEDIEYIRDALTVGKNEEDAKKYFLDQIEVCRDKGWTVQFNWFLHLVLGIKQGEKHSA

CHEK1 = target: T3, CHEK1 (Homo sapiens, UniProt O14757); assay: Kinase selectivity screen CHEK1; conditions: read-out: % inhibition of CHEK1
T3 sequence (O14757 1-476): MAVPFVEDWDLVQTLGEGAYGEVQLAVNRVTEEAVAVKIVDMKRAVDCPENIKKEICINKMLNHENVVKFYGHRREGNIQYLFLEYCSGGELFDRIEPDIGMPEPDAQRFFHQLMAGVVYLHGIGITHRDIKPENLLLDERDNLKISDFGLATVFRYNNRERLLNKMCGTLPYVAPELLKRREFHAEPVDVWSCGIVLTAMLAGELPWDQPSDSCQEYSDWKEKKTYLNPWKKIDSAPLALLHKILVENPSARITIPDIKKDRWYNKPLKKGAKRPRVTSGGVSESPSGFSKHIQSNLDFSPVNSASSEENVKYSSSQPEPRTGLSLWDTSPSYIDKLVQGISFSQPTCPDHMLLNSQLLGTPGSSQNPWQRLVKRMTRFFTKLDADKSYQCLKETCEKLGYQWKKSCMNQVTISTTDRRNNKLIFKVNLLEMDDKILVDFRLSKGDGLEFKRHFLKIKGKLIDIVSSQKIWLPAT

EEF2K = EEF2K (Homo sapiens, UniProt O00418); assay: Kinase selectivity screen EEF2K; conditions: read-out: % inhibition of EEF2K
Sequence of EEF2K (O00418 whole entry): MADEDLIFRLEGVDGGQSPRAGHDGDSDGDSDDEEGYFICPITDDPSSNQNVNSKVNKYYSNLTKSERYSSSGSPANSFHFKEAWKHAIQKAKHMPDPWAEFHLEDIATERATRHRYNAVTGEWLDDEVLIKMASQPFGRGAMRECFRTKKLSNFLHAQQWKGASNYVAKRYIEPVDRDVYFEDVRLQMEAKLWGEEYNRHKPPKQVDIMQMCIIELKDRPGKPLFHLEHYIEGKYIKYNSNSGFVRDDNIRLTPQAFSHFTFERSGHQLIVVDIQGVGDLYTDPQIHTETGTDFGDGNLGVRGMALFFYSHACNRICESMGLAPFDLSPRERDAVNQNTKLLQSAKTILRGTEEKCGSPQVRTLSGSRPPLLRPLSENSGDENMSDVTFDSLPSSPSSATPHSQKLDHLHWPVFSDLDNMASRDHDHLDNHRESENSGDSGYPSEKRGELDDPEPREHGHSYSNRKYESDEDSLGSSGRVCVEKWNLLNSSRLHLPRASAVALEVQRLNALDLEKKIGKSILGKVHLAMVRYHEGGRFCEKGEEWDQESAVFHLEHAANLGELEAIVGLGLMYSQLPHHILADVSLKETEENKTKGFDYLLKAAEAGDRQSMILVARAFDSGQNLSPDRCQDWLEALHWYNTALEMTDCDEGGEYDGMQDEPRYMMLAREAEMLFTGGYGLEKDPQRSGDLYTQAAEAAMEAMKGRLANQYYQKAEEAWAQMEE

Sequence of PTK2 (Q05397 whole entry, species assumed): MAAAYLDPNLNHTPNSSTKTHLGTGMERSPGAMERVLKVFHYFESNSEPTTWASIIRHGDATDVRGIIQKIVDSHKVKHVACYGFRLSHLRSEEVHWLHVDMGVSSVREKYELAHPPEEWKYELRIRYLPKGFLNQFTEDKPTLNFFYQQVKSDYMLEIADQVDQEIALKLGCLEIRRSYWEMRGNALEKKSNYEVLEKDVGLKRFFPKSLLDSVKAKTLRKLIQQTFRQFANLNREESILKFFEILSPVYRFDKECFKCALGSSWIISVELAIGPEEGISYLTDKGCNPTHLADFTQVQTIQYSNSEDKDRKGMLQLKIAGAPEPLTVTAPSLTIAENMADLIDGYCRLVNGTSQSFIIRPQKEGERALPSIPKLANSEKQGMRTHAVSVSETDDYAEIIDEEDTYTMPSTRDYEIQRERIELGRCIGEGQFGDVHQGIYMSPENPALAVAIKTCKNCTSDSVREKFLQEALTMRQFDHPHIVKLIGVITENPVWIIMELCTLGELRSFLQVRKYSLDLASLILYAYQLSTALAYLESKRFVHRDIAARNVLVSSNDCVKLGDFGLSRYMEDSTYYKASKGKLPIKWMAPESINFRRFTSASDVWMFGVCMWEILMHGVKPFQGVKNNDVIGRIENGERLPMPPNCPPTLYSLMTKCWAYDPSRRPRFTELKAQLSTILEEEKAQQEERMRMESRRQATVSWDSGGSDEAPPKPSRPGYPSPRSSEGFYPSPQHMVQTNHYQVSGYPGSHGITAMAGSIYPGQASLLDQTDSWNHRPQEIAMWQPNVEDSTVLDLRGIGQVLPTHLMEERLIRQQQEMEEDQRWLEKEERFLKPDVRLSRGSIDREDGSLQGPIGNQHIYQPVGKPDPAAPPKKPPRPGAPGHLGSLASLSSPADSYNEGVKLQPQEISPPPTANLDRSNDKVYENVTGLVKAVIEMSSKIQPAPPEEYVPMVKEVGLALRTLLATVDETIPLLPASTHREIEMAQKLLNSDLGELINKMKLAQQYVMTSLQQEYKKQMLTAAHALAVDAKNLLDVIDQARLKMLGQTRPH

SMILES | inhibition at 1 µM (PTK2) | inhibition at 1 µM (BMX) | inhibition at 1 µM (LCK) | inhibition at 1 µM (MKNK2) | inhibition at 1 µM (STK10) | inhibition at 1 µM (DYRK2) | inhibition at 1 µM (MAP3K9) | inhibition at 1 µM (ROCK2) | inhibition at 1 µM (PIK3CG) | inhibition at 1 µM (CHEK1) | inhibition at 1 µM (EEF2K)
CC(C)Oc1cc(F)ccc1Nc1ncnc2sc(C(=O)NCC3CCNCC3)nc12 [Example 10, 7-(4-fluoro-2-isopropoxy-anilino)-N-(4-piperidylmethyl)thiazolo[5,4-d]pyrimidine-2-carboxamide] | 16% | 0% | 12% | 81% | 28% | 7% | 11% | 1% | 6% | 0% | 4%
O=C(NCC1CCNCC1)c1nc2c(N3CCc4cc(F)ccc43)ncnc2s1 [Example 58, 7-(5-fluoroindolin-1-yl)-N-(4-piperidylmethyl)thiazolo[5,4-d]pyrimidine-2-carboxamide] | 0% | 0% | 0% | 93% | 71% | 21% | 24% | 8% | 0% | 6% | 0%
CN(C)CCCNC(=O)c1nc2c(N3CCc4cc(F)ccc43)ncnc2s1 [Example 64, N-[3-(dimethylamino)propyl]-7-(5-fluoroindolin-1-yl)thiazolo[5,4-d]pyrimidine-2-carboxamide] | 0% | 6% | 0% | 96% | 81% | 44% | 1% | 18% | 3% | 35% | 0%
